PMC10449621, “Engineering cellular communication between light-activated synthetic cells and bacteria” (Nature Chemical Biology, 2023)
Values joined by “and” are separate entries in the source; they are usually repeats but may differ in a detail not shown here. Identical values can stand only once.

Test system: BjaRWT (B0033|ATG) receiver cells
Assay: BjaR receiver cell AHSL dose-response (gfp reporter, plate reader)
Assay type: cell-based, E. coli XL10-Gold
Text: These findings are consistent with the predicted translation initiation rates of the respective sequences—translation from the BBa_B0033 RBS provides 1% of protein yield compared to the BBa_B0034 RBS, just as an CTG start codon provides 1% of the protein yield compared to an ATG start codon[30],[31]. This also offers support as to why the ON-state gfp expression level increased in variants with a tighter OFF-state; more cellular resources were available for GFP synthesis when comparatively fewer were allocated to BjaR synthesis. To elucidate the impact of the S107R variant on gene circuit performance, we introduced the S107R variant alone back into the bjaRWT gene, in the context of the BBa_B0033 RBS background.
In addition to quantifying how these BjaR receiver cells responded to their branched, cognate ligand, we also sought to determine whether the BjaR receiver cells could be activated by structurally dissimilar AHSLs involved in the LuxI/R, EsaI/R, LasI/R and RhlI/R QS systems previously used in synthetic cell communication[5],[7],[8]. To this end, we measured the fluorescence of BjaR receiver cells grown in the presence of their activators, 3OC6-HSL, 3OC12-HSL and C4-HSL, respectively (Supplementary Fig. 13a).
The BjaR reporter plasmids were retransformed into E. coli XL10-Gold cells for each experiment. A single colony was used to inoculate 5 ml LB + Amp media and incubated at 37 °C, 225 r.p.m. overnight. Overnight cultures were diluted 1/250 or 1/500 in 5 ml M9 minimal media + Amp and incubated at 37 °C, 225 r.p.m. for 3 h and 45 min (until OD600 = ~0.075). Cultures were diluted down to OD600 = 0.05 with M9 minimal media + Amp, and 200 µl was added to wells of a 96-well plate containing 1 µl IV-HSL dissolved in DMSO or 1 µl BjaI CFPS reactions (IV-HSL concentrations obtained from serial dilution from 63.2 µM to 632 pM; final DMSO concentration = 0.5%). Cells were incubated at 37 °C, 800 r.p.m., in a thermomixer with a heated lid for 4 h. Fluorescence and OD600 were measured in a Tecan M1000 infinite plate reader (excitation, 488 nm; emission, 510 nm; bandwidth, 5 nm; gain, 101 and z position, 21,311 µm). The dose–response curves were fitted to the function indicated by Eq. (1), where a = maximal fluorescence output, b = basal fluorescence output, X = concentration of AHSL, GFP = fluorescence at the given condition, EC50 = AHSL at 50% maximal fluorescence output and h = hill coefficient. EC50 and h were derived using the nonlinear regression model based on Eq. (1), in MATLAB. A summary of the dose–response data is available in Supplementary Table 1.1 GFP=b+a−b/1+10^logEC50−X×h

In the case of `CC(C)CC(=O)N[C@H]1CCOC1=O` [IV-HSL, N-isovaleryl-L-homoserine lactone], the EC50 (Escherichia coli, IV-HSL-activated gfp expression) is reported as 3.93 ± 0.38 nM, the hill coefficient (IV-HSL dose-response curve) is reported as 1.38 and the GFP (Log([ASHL]) -6.5) is reported as 47248 and 37500. The Mean normalised fluorescence (Log([ASHL]) -6.5) was 200159, the Normalised fluorescence (Log([ASHL]) -6.5) was 212521 and 200332 and 187623 and the Mean normalised fluorescence (Log([ASHL]) -6.5, sheet 3e) was 184419. For the same compound, the Mean normalised fluorescence (Log([ASHL]) -6.5, sheet 3d) was 198983, the Normalised fluorescence (Log([ASHL]) -6.5, sheet 3d, Expt1-3) was 211719 and 182929 and the GFP (Log([ASHL]) -7) was 45353 and 37555. The Mean normalised fluorescence (Log([ASHL]) -7) was 189629, the Normalised fluorescence (Log([ASHL]) -7) was 198623 and 195600 and 174664 and the Mean normalised fluorescence (Log([ASHL]) -7, sheet 3e) was 176709. For the same compound, the Mean normalised fluorescence (Log([ASHL]) -7, sheet 3d) was 188606, the Normalised fluorescence (Log([ASHL]) -7, sheet 3d, Expt1-3) was 197885 and 170457 and the GFP (Log([ASHL]) -7.5) was 45933 and 37587 and 40718. For the same compound, the Mean normalised fluorescence (Log([ASHL]) -7.5) was 182276, the Normalised fluorescence (Log([ASHL]) -7.5) was 179523 and 192948 and 174359 and the Mean normalised fluorescence (Log([ASHL]) -7.5, sheet 3e) was 170191. The Mean normalised fluorescence (Log([ASHL]) -7.5, sheet 3d) was 181297, the Normalised fluorescence (Log([ASHL]) -7.5, sheet 3d, Expt1-3) was 178915 and 170205 and 194772 and the GFP (Log([ASHL]) -8) was 37611 and 40673. The Mean normalised fluorescence (Log([ASHL]) -8) was 167362, the Normalised fluorescence (Log([ASHL]) -8) was 183805 and 164832 and 153451 and the Mean normalised fluorescence (Log([ASHL]) -8, sheet 3e) was 154256. For the same compound, the Mean normalised fluorescence (Log([ASHL]) -8, sheet 3d) was 166513, the Normalised fluorescence (Log([ASHL]) -8, sheet 3d, Expt1-3) was 161111 and 185459 and the GFP (Log([ASHL]) -8.5) was 37118 and 36825. For the same compound, the Mean normalised fluorescence (Log([ASHL]) -8.5) was 127411, the Normalised fluorescence (Log([ASHL]) -8.5) was 156949 and 139152 and 86132.6 and the Mean normalised fluorescence (Log([ASHL]) -8.5, sheet 3e) was 106537. For the same compound, the Mean normalised fluorescence (Log([ASHL]) -8.5, sheet 3d) was 126734, the Normalised fluorescence (Log([ASHL]) -8.5, sheet 3d, Expt1-3) was 136219 and 158173 and the Mean normalised fluorescence (Log([ASHL]) -9) was 62693.3. For the same compound, the Mean normalised fluorescence (Log([ASHL]) -9, sheet 3e) was 40066, the Mean normalised fluorescence (Log([ASHL]) -9, sheet 3d) was 62287.6 and the Mean normalised fluorescence (Log([ASHL]) -9.5) was 17191.4. It also gave a Mean normalised fluorescence (Log([ASHL]) -9.5, sheet 3e) of 9895.56, a Mean normalised fluorescence (Log([ASHL]) -9.5, sheet 3d) of 17095.5 and a Mean normalised fluorescence (Log([ASHL]) -10) of 3897.48. The Mean normalised fluorescence (Log([ASHL]) -10, sheet 3e) was 2635.87, the Mean normalised fluorescence (Log([ASHL]) -10, sheet 3d) was 3848.29 and the GFP (Log([ASHL]) -10.5) was 559 and 459. For the same compound, the Mean normalised fluorescence (Log([ASHL]) -10.5) was 1658.33, the Normalised fluorescence (Log([ASHL]) -10.5) was 2009.19 and 1558.44 and 1407.36 and the Mean normalised fluorescence (Log([ASHL]) -10.5, sheet 3e) was 1317.17. The Mean normalised fluorescence (Log([ASHL]) -10.5, sheet 3d) was 1623.48, the Normalised fluorescence (Log([ASHL]) -10.5, sheet 3d, Expt1-3) was 1531.14 and 2041.25 and the GFP (Log([ASHL]) -11) was 433 and 333 and 432. The Mean normalised fluorescence (Log([ASHL]) -11) was 1322.92, the Normalised fluorescence (Log([ASHL]) -11) was 1515.8 and 1009.39 and 1443.57 and the Mean normalised fluorescence (Log([ASHL]) -11, sheet 3e) was 1095.36. For the same compound, the Mean normalised fluorescence (Log([ASHL]) -11, sheet 3d) was 1289.12, the Normalised fluorescence (Log([ASHL]) -11, sheet 3d, Expt1-3) was 995.025 and 1544.75 and 1327.6 and the GFP (Log([ASHL]) -11.5) was 418 and 424 and 326. For the same compound, the Mean normalised fluorescence (Log([ASHL]) -11.5) was 1299.42, the Normalised fluorescence (Log([ASHL]) -11.5) was 1462.99 and 1426.41 and 1008.84 and the Mean normalised fluorescence (Log([ASHL]) -11.5, sheet 3e) was 1097.76. For the same compound, the Mean normalised fluorescence (Log([ASHL]) -11.5, sheet 3d) was 1265.1 and the Normalised fluorescence (Log([ASHL]) -11.5, sheet 3d, Expt1-3) was 994.106 and 1309.43 and 1491.76.
